Measured values from ChEMBL document CHEMBL1147626, “Determination of the stable conformation of GABA(A)-benzodiazepine receptor bivalent ligands by low temperature NMR and X-ray analysis” (Bioorg Med Chem Lett, 2004).

Molecular target: T1, GABA-A receptor; alpha-3/beta-3/gamma-2 (Homo sapiens, UniProt P18507+P28472+P34903)
T1 sequence (P18507 whole entry): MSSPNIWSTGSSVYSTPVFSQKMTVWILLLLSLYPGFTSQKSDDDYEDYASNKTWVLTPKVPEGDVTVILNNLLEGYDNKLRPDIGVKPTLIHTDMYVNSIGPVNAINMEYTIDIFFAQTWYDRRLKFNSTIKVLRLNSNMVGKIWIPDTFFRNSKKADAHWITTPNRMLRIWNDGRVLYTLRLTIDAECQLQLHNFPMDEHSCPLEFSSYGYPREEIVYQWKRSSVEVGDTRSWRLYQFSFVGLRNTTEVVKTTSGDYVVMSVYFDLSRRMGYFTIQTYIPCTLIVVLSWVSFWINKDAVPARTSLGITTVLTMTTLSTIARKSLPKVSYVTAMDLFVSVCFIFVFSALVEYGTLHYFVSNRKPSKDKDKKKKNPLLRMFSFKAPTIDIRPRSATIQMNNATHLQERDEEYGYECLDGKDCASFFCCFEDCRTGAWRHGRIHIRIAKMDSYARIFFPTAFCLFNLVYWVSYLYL
T1 sequence (P28472 whole entry): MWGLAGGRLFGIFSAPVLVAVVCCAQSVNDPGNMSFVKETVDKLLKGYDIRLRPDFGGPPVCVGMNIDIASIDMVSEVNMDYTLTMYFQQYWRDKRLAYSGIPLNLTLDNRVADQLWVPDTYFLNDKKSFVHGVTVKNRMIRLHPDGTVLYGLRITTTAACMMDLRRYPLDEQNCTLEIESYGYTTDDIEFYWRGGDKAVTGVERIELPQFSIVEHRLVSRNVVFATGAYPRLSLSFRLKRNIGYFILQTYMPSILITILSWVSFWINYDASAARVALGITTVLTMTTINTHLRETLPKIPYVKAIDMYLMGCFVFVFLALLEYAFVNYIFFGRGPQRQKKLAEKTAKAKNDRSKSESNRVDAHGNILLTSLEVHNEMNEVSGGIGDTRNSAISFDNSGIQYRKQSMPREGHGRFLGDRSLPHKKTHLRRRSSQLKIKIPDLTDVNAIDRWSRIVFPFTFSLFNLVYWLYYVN
T1 sequence (P34903 whole entry): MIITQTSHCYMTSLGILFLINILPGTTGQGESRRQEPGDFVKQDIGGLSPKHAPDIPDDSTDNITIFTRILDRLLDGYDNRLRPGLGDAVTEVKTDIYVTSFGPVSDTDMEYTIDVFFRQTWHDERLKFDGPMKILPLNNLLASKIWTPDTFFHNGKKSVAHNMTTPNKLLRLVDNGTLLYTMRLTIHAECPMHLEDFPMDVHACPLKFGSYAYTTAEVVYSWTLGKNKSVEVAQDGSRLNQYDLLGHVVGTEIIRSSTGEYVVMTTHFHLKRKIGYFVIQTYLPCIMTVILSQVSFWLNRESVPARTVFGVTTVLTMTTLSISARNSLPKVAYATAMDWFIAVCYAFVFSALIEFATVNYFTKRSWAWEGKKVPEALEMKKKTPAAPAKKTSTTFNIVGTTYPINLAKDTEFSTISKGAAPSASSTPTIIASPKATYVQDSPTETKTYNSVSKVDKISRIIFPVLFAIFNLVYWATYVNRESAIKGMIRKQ
Test: In vitro inhibition of [3H]-Ro- 15-1788 binding to human GABA-A receptor alpha-3-beta-3-gamma-2 subunits expressed in L(tk-)cells
Format: cell-based

Ki: 858 nM
SMILES: C#Cc1ccc2c(c1)C(=O)N(C)Cc1c(C(=O)OCCCOC(=O)c3ncn4c3CN(C)C(=O)c3cc(C#C)ccc3-4)ncn1-2
